The results in this text go back to ChEMBL document CHEMBL1201862, “PubChem BioAssay data set” (2004).

Among the test systems are TK-10; IGROV-1; SW-620; SN12C; CAKI-1; SR; HT-29; MDA-MB-435; M14; OVCAR-3; Hs-578T; MCF7; NCI-H522; RXF 393; NCI-H460; SK-MEL-2; A498; KM12; OVCAR-5; HL-60.
Common to all, as to experiment: growth of human tumour cells (NCI), 48 h

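Five concentrations, 48 hours, 96-well plates. Abbreviation: GI50, concentration required for 50% inhibition of growth.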 Active and inactive are the calls of the source. Cut-off read from the data, not from the text of the source: active = GI50 up to about 1.1 µM and inactive = higher. A value given as a limit tells only on which side of the number the result lay.

In the case of `CN1CCC(n2[nH]c(-c3ccccc3)c(Cc3ccccc3)c2=O)CC1` [BENZPIPERYLON], the GI50 with TK-10 is > 100 µM (inactive); in the assay with IGROV-1, 59.7 µM (inactive); in the assay with SW-620, > 100 µM (inactive); with SN12C it was > 100 µM (inactive); in the assay with CAKI-1, > 100 µM (inactive); in the assay with SR, 33.3 µM (inactive). Further, the GI50 with HT-29 was 87.9 µM (inactive); in the assay on MDA-MB-435 it was > 100 µM (inactive); with M14, > 100 µM (inactive); in the assay on OVCAR-3, > 100 µM (inactive); in the assay on Hs-578T it was 50.9 µM (inactive); in the assay with MCF7, > 100 µM (inactive). Further, the GI50 is > 100 µM (inactive) in the assay with NCI-H522; 63 µM (inactive) in the assay on RXF 393; 49.5 µM (inactive) in the assay with NCI-H460; > 100 µM (inactive) in the assay with SK-MEL-2; 93.3 µM (inactive) in the assay on A498; > 100 µM (inactive) in the assay with KM12. Further, the GI50 with OVCAR-5 was > 100 µM (inactive).
Consider `CCN1CCC(O)(/C=C/c2ccc(Cl)c(Cl)c2)C(C(=O)/C=C/c2ccc(Cl)c(Cl)c2)C1` (stereo unspecified), for which the GI50 with TK-10 was 1.32 µM (inactive); in the assay on IGROV-1, 0.706 µM (active); in the assay on SW-620 it was 0.466 µM (active); in the assay with SN12C, 0.873 µM (active); with CAKI-1, 1.82 µM (inactive); in the assay with HT-29 it was 0.689 µM (active). Moreover, the GI50 in the assay with MDA-MB-435 is 0.877 µM (active); in the assay with M14 it was 0.733 µM (active); in the assay on OVCAR-3, 0.764 µM (active); with Hs-578T, 0.271 µM (active); in the assay on HL-60 it was 0.246 µM (active); in the assay on MCF7 it was 1.06 µM (active). Moreover, the GI50 in the assay on NCI-H522 is 0.948 µM (active); in the assay with RXF 393, 1.35 µM (inactive); in the assay on NCI-H460 it was 0.76 µM (active); in the assay on SK-MEL-2, 1.04 µM (active); in the assay on A498, 0.891 µM (active); with KM12, 0.713 µM (active). Besides, the GI50 in the assay with OVCAR-5 was 1.12 µM (inactive).
Take `O=C1CCC(=O)N1n1c(Cc2ccccc2)n[nH]c1=O`: the GI50 in the assay on TK-10, with IGROV-1, with SW-620, in the assay on SN12C, in the assay with CAKI-1 and in the assay with SR was > 100 µM (inactive) each time. For the same molecule, the GI50 with HT-29, in the assay on MDA-MB-435, in the assay on M14, with OVCAR-3, with Hs-578T and in the assay on MCF7 was > 100 µM (inactive) throughout. Also, the GI50 in the assay on NCI-H522 was > 100 µM (inactive); with RXF 393, > 100 µM (inactive); in the assay with NCI-H460, > 100 µM (inactive); with SK-MEL-2, > 100 µM (inactive); in the assay with A498 it was > 100 µM (inactive); in the assay on KM12 it was 7.29 µM (inactive). In addition, the GI50 in the assay on OVCAR-5 was > 100 µM (inactive).
Regarding `O=C1C(c2c(O)[nH]c3ccc(F)cc23)=Nc2ccccc21`, the GI50 in the assay on TK-10 is 22.1 µM (inactive); with IGROV-1, 1.03 µM (active); in the assay on SW-620, > 100 µM (inactive); in the assay with SN12C, > 100 µM (inactive); in the assay on CAKI-1 it was > 100 µM (inactive); with SR it was > 100 µM (inactive). In addition, the GI50 in the assay on HT-29 is > 100 µM (inactive); with MDA-MB-435, > 100 µM (inactive); in the assay with M14, > 100 µM (inactive); in the assay with OVCAR-3 it was > 100 µM (inactive); with Hs-578T, 13.6 µM (inactive); with MCF7, 6.56 µM (inactive). Besides, the GI50 in the assay with NCI-H522 was > 100 µM (inactive); in the assay with RXF 393, 3.19 µM (inactive); with NCI-H460 it was > 100 µM (inactive); with SK-MEL-2, 14.5 µM (inactive); in the assay with KM12, > 100 µM (inactive); in the assay on OVCAR-5, > 100 µM (inactive).
`Cn1c2ccccc2c2c3c(c4c5ccccc5n(C)c4c21)C(=O)N(Cc1ccccc1)C3=O`: the GI50 in the assay on TK-10 was > 100 µM (inactive); with IGROV-1, 53.3 µM (inactive); in the assay on SW-620, > 100 µM (inactive); in the assay on SN12C it was > 100 µM (inactive); in the assay with CAKI-1 it was > 100 µM (inactive); in the assay with SR, 31.8 µM (inactive). Further, the GI50 in the assay with HT-29, in the assay with MDA-MB-435, in the assay with M14, with Hs-578T, in the assay on MCF7 and in the assay with NCI-H522 was > 100 µM (inactive) each time. Moreover, the GI50 in the assay on NCI-H460 is > 100 µM (inactive); in the assay on SK-MEL-2, > 100 µM (inactive); in the assay with A498, 79.1 µM (inactive); with KM12 it was > 100 µM (inactive); with OVCAR-5, > 100 µM (inactive).
With `Cc1cc(C)n(C2=NS(=O)(=O)c3ccccc3N2C)n1`, the GI50 with TK-10, in the assay on IGROV-1, in the assay on SW-620, with SN12C, with CAKI-1 and with HT-29 was > 100 µM (inactive) in each case. In addition, the GI50 with MDA-MB-435, in the assay on M14, in the assay on OVCAR-3, with Hs-578T, in the assay on HL-60 and with MCF7 was > 100 µM (inactive) each time. The GI50 in the assay on NCI-H522, in the assay on RXF 393, in the assay with NCI-H460, in the assay on SK-MEL-2, in the assay on A498 and in the assay with KM12 was > 100 µM (inactive) each time. Further, in the assay with OVCAR-5, the GI50 is > 100 µM (inactive).
With `Cc1nc2c(c(N3CCN(C)CC3)n1)Cc1ccccc1-2`, the GI50 in the assay with TK-10 is 31.4 µM (inactive); in the assay on SW-620, 31 µM (inactive); in the assay on CAKI-1, 17.1 µM (inactive); with HT-29, 44.1 µM (inactive); in the assay with MDA-MB-435, 64.7 µM (inactive); with M14, 50.9 µM (inactive). The GI50 was 65 µM (inactive) in the assay with Hs-578T; 42.1 µM (inactive) in the assay with HL-60; 70.3 µM (inactive) in the assay with MCF7; 16.9 µM (inactive) in the assay on NCI-H522; > 100 µM (inactive) with RXF 393; 18.8 µM (inactive) with NCI-H460. For the same molecule, the GI50 in the assay with SK-MEL-2 was 75.5 µM (inactive); with KM12 it was 48 µM (inactive); in the assay on OVCAR-5, 80.7 µM (inactive).
For `COc1ccc(C(=O)C(Br)C(Br)C(=O)O)cc1` (stereo unspecified), the GI50 in the assay on TK-10 was 90.2 µM (inactive); in the assay with IGROV-1 it was 51.1 µM (inactive); with SW-620, 23.3 µM (inactive); in the assay on SN12C, 47.2 µM (inactive); in the assay with CAKI-1, 38.3 µM (inactive); with HT-29 it was 15.6 µM (inactive). For the same molecule, the GI50 is 36.1 µM (inactive) with MDA-MB-435; 54.1 µM (inactive) in the assay with M14; 28.3 µM (inactive) in the assay with OVCAR-3; 35.2 µM (inactive) in the assay on Hs-578T; 35.8 µM (inactive) in the assay with MCF7; 16.7 µM (inactive) with NCI-H522. Besides, the GI50 in the assay on RXF 393 was 24.2 µM (inactive); with NCI-H460, 36.3 µM (inactive); in the assay on SK-MEL-2 it was 39 µM (inactive); in the assay with A498, > 100 µM (inactive); in the assay on KM12, 52.1 µM (inactive); with OVCAR-5, 32.7 µM (inactive).
As for `Cn1cco/c1=N/c1ccc(Cl)c(Cl)c1`, the GI50 with TK-10, with IGROV-1, in the assay with SW-620, in the assay with SN12C, with CAKI-1 and with SR was > 10 µM (inactive) throughout. Moreover, the GI50 with HT-29, in the assay with MDA-MB-435, in the assay on M14, in the assay with OVCAR-3, in the assay on Hs-578T and with MCF7 was > 10 µM (inactive) each time. Moreover, the GI50 in the assay with NCI-H522, with NCI-H460, in the assay with A498, in the assay with KM12 and in the assay with OVCAR-5 was > 10 µM (inactive) in each case.
Regarding `N=c1c2sc3nc4ccccc4n3c2ncn1Cc1ccccc1`, the GI50 in the assay on TK-10 is 84.3 µM (inactive); in the assay on IGROV-1, > 100 µM (inactive); in the assay with SW-620, > 100 µM (inactive); in the assay on CAKI-1 it was > 100 µM (inactive); in the assay on SR, > 100 µM (inactive); in the assay with MDA-MB-435, > 100 µM (inactive). Moreover, the GI50 with M14 was > 100 µM (inactive); in the assay with OVCAR-3, > 100 µM (inactive); with Hs-578T, > 100 µM (inactive); in the assay with MCF7, > 100 µM (inactive); in the assay on NCI-H522 it was > 100 µM (inactive); in the assay on RXF 393, 63.5 µM (inactive). For the same molecule, the GI50 in the assay on SK-MEL-2 was > 100 µM (inactive); with A498, > 100 µM (inactive); in the assay on KM12, 0.957 µM (active); in the assay on OVCAR-5 it was > 100 µM (inactive).
`Cc1ccc(-c2cc(-c3ccc(Cl)cc3)nc(/N=C3\C(=O)N(CN4CCCCC4)c4ccc(Cl)cc43)n2)cc1`: the GI50 with TK-10 is 21.7 µM (inactive); in the assay on IGROV-1, 10.5 µM (inactive); in the assay on SW-620, 24.3 µM (inactive); in the assay on SN12C, 25.9 µM (inactive); in the assay on CAKI-1, 18.1 µM (inactive); with HT-29 it was 32.3 µM (inactive). For the same molecule, the GI50 is 20.3 µM (inactive) in the assay with MDA-MB-435; 15.6 µM (inactive) in the assay on M14; 35.5 µM (inactive) in the assay on OVCAR-3; 18.9 µM (inactive) in the assay on Hs-578T; 16 µM (inactive) with HL-60; 21.1 µM (inactive) in the assay with MCF7. Moreover, the GI50 in the assay on NCI-H522 is 12.5 µM (inactive); in the assay with RXF 393, 18.3 µM (inactive); in the assay with NCI-H460, 22.5 µM (inactive); in the assay with SK-MEL-2 it was 18.2 µM (inactive); in the assay with A498, 18.8 µM (inactive); in the assay with KM12, 15.8 µM (inactive). For the same molecule, the GI50 with OVCAR-5 is 38.2 µM (inactive).
